# In US12017976B1, “1-(4-carbonoimidoylphenoxy)-3-{4-[(e)-(phenylimino)methyl]phenoxy }propan-2-ol as an eco-friendly insecticidal agent against Spodoptera littoralis (boisd.)” (KING FAISAL UNIVERSITY, priority 2024, dated 2024):
# What was measured:
# [1] = test system: Spodoptera littoralis larvae (2nd and 4th instar); assay: Insecticidal leaf dip bioassay on larvae of the laboratory strain of cotton leafworm
# Protocol: Five concentrations (200, 100, 50, 25, 12.5 ppm) were designed for this synthetic compound and the reference fenoxycarb's compound as the dynamic ingredients based on ppm via diluting the commercial formulation.
# In this experiment, the synthetic compound was tested for its insecticidal bioactivity using the industry-standard leaf dip bioassay techniques. […] Until usage, the stocks were kept in a refrigerator. The target substance test results were noted & the concentrations needed to destroy 50% (LC50) of S. littoralis larvae were calculated. The target compound was employed in five different concentrations, & 0.1% Tween 80 was employed as a surfactant. Castor bean leaf discs (nine centimeters in diameter) were dipped in the concentration under test for ten seconds, then fed to 2th & 4th larvae, which were roughly the same size and housed in glass jars (five pound). Each action carried out 3 times with ten larvae each. The mortality equalized via Abbott's formula. […] The mortality results of larval insect were estimated through employing probit analysis through a statistics (LDP-line) equation which estimate the LC50 values with 95% fiducially limits of lower, upper confidence limit and slope.
# aquatic insects = details: highly toxic / very highly toxic classification; cited from earlier work
structure (smiles),measurement,setting,value
CCOC(=O)NCCOc1ccc(Oc2ccccc2)cc1 [fenoxycarb],"Toxicity index %, 2nd instar larvae","[1]; 2nd instar larvae, 72 hours, fenoxycarb's LC50 / compound's LC50",100%
same,"Toxicity index %, 4th instar larvae","[1]; 4th instar larvae, 72 hours, fenoxycarb's LC50 / compound's LC50",100%
same,LC50,"[1]; Spodoptera littoralis, in Gossypium hirsutum, foliar, read-out: LC50 against Spodoptera littoralis",5.94 µg/mL
CCc1ccc(C(=O)NN(C(=O)c2cc(C)cc(C)c2)C(C)(C)C)cc1 [tebufenozide],LC50 for aquatic insects,aquatic insects,100 to 1000 µg/mL
